Columns and labels:
[1] = Solubility and solution stability of C-005 and its salts; format: physicochemical
[2] = test system: activated form and resistant mutant form of EGFR; conditions: cited from earlier work
[3] = molecular target: WT EGFR (Homo sapiens, UniProt P00533); conditions: cited from earlier work
WT EGFR, sequence (P00533 25-1210): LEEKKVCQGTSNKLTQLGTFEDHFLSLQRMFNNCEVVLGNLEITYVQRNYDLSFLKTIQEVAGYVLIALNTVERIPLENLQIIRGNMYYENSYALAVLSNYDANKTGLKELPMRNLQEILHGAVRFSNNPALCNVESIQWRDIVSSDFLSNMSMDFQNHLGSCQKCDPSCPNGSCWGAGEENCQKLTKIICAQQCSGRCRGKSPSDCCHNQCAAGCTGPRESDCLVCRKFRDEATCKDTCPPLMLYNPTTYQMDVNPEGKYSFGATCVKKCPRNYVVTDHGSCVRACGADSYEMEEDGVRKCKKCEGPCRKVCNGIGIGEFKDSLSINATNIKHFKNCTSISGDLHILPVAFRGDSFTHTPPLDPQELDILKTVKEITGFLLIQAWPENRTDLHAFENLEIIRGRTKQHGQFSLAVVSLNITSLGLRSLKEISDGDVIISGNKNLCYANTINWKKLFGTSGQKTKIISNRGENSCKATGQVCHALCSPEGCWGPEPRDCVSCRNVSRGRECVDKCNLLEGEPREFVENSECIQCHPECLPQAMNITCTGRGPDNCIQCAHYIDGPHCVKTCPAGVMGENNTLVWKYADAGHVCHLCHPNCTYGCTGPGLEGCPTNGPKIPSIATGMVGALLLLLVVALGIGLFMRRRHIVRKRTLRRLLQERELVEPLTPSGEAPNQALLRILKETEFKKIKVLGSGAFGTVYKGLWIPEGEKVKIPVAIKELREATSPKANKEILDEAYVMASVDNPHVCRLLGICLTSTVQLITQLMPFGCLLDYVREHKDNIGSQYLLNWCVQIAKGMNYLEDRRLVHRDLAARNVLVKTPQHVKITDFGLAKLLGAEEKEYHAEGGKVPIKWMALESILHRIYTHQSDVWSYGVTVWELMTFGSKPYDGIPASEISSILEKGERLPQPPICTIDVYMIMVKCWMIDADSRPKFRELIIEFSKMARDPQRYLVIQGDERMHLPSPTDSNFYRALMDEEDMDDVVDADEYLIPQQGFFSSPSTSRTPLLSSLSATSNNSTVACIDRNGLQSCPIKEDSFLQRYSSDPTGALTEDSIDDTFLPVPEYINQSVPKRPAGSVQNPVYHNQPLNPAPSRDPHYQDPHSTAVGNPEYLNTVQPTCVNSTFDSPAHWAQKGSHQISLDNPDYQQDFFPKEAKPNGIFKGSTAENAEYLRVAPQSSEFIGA

Time period for which the solution is stable and does not precipitate ([1]; solution of the citrate, once formed)	Solubility compared with C-005 in the free-base form ([1]; under the pH conditions in intestine)	Solubility in simulated gastric fluid compared to the solubility in aqueous solution ([1]; simulated gastric fluid (pH 1.2) vs aqueous solution (pH 7))	Structure (SMILES)	pH dependence of solubility (and permeability) [1]	Inhibition of activated form and resistant mutant form of EGFR [2]	Inhibitory activity against WT EGFR [3]
at least 24 hours	significantly higher	–	C=CC(=O)Nc1cc(Nc2nccc(-c3cn(C)c4cccnc34)n2)c(OC)cc1N(C)CCN(C)C.O=C(O)CC(O)(CC(=O)O)C(=O)O [C-005 citrate, N-(2-((2-(dimethylamino)ethyl)(methyl)amino)-4-methoxy-5-((4-(1-methyl-1H-pyrrolo[3,2-b]pyridin-3-yl)pyrimidin-2-yl)amino)phenyl)acrylamide citrate]	–	–	–
–	–	approximately 40 times	C=CC(=O)Nc1cc(Nc2nccc(-c3cn(C)c4cccnc34)n2)c(OC)cc1N(C)CCN(C)C [C-005, N-(2-((2-(dimethylamino)ethyl)(methyl)amino)-4-methoxy-5-((4-(1-methyl-1H-pyrrolo[3,2-b]pyridin-3-yl)pyrimidin-2-yl)amino)phenyl)acrylamide]	significant pH-dependent solubility and permeability	inhibit both activated form and resistant mutant form of EGFR	relatively low inhibitory activity

Source: US11786527B2, “Pharmaceutical composition and preparation method therefor and uses thereof” (WUXI SHUANGLIANG BIOTECHNOLOGY CO., LTD., priority 2018, dated 2023)
